Laboratory results taken from PMC7073229, “Novel Quinoline Compounds Active in Cancer Cells through Coupled DNA Methyltransferase Inhibition and Degradation” (Cancers, 2020).
Counter-ions that a name gives are not always drawn.

Key:
[1] = biological target: T1, C-terminal catalytic domain of human DNMT3A (hDNMT3A) (Homo sapiens, UniProt Q9Y6K1); experiment: DNMT3A restriction-based fluorescence assay; assay type: biochemical; details: mean of at least two independent experiments; read-out: Enzyme Inhibition (EC50 ± SD) hDNMT3A
T1 construct: the C-terminal catalytic domain of human DNMT3A (hDNMT3A)
T1 sequence (Q9Y6K1 634-912 limits assumed): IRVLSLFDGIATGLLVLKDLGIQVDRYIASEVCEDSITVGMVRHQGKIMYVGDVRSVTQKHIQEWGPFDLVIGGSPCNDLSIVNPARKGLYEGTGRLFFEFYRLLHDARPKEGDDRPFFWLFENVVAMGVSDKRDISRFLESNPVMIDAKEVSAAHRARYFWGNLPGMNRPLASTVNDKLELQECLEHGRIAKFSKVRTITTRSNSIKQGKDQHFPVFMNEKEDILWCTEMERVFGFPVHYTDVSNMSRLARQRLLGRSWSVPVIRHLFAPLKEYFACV
Protocol: DNMT3A enzyme inhibition was adapted from the restriction-based fluorescence assay protocol described in Ceccaldi et al.. Briefly, a biotin-labelled oligonucleotide at the 5’ end is hybridized to his complementary strand labelled at the 3’ end with 6-carboxyfluorescein. The DNA duplex containing only one single CpG site overlapping with a restriction site of a methylation sensitive restriction enzyme is transferred in the wells coated with avidin. The methylation reaction is performed by adding human C-terminal DNMT3A at the final concentration of 4 ng/µL in a total volume of 50 µL in the presence of the inhibitors at various concentrations and the co-substrate SAM at the final concentration of 20 µM. The plate was incubated for 1 h at 37 °C, washed, and added with the methylation sensitive restriction enzyme HpyCH4IV, incubated for 1 h further at 37 °C, washed and the fluorescence measured with a PerkinElmer Envision Multilabel Plate Reader. The data are expressed as percentage of inhibition vs. log concentration (M). Data are normalized referring to the “restriction control” (wells coated with labelled duplex not treated nor exposed to DNMT3A, but only cleaved by HpyCH4IV) as the maximum of inhibition (100%) and to the “DMSO control” (wells coated with labelled duplex but treated just with 0.1% DMSO exposed to DNMT3A and then to HpyCH4IV) as the minimum of inhibition (0%; total methylation).

HL60 APL cells = experiment: Antiproliferative activity, MTT; assay type: cell-based; details: Homo sapiens, HL-60, 48 h treatment, read-out: Antiproliferative Activity (IC50 ± SD) HL60
Protocol: (§1) U937 histiocytic lymphoma, HL60 acute promyelocytic leukemia, H1299 lung adenocarcinoma, MCF7 breast carcinoma, HT1080 fibrosarcoma, M14 melanoma, HeLa epithelial cervix carcinoma and peripheral blood B lymphocyte AHH1 human cell lines were obtained from the Deutsche Sammlung für Mikroorganismen and Zellkulturen (DSZM, Braunschweig, Germany) and were maintained in RPMI 1640 medium contained 10% fetal bovine serum (FBS), 2 mM L-glutamine, and antibiotics in a humidified atmosphere with 5% CO2 at 37 °C. HCT116 (ATCC, VA, USA) cells were propagated in Dulbecco’s modified Eagle medium (DMEM) (Euroclone, Milan, Italy) with 10% fetal bovine serum (FBS; Euroclone, Milan, Italy), 2 mM L-glutamine (Euroclone, Milan, Italy), and antibiotics (100 U/mL penicillin, 100 µg/mL streptomycin) (Euroclone, Milan, Italy). The experiments were performed with early (3–20) cell passages. Cell lines were treated with compounds at the indicated concentrations in the exponential growth phase.
(§2) Then, increasing concentrations of different compounds (ranging from 0.01 to 100 μM) were added, and cell proliferation was evaluated by a MTT assay after 48 h. Cells exposed to DMSO were used as control. The effect of compounds was evaluated using the CellTiter-Glo luminescent cell viability assay (Promega, Madison, WI, USA) according to the manufacturer’s instructions. For HCT116, 5 × 10^4 cells/well were plated in 24-well plate and treated, in duplicate, with compounds at several concentrations for 24 and 48 h of induction. After treatments, MTT solution was added for 3 h at 0.5 mg/mL, the obtained crystals were dissolved in DMSO (Sigma-Aldrich, Milan, Italy), and the absorbance was read at a wavelength of 570 nm with reader TECAN M-200. All the experiments were performed in triplicate and repeated at least three times.
(§3) IC50 values of compounds against cellular viability were determined by using nonlinear regression fitting curves with GraphPad Prism 8. The t-test used for statistical analyses was performed with GraphPad Prism 8. All the tests were one-tailed and a p-value < 0.05 was considered statistically significant.

U937 AML cells = experiment: Antiproliferative activity, MTT; assay type: cell-based; details: Homo sapiens, U-937, 48 h treatment, read-out: Antiproliferative Activity (IC50 ± SD) U937
Protocol: as §1, §2, §3

U937 cells = experiment: Sub-G1 peak, cell cycle flow cytometry; assay type: cell-based, human; details: U937, 1 µM, 24 and 48 h
Protocol: Cell cycle analysis was performed on 5 × 10^5 fixed cells resuspended in a RNase A (3 mg/mL) and propidium iodide (PI) solution (1 mg/mL). Samples were analyzed with a C6 Accuri BD (Becton Dickinson & Co., San Jose, CA, USA). The percentage of apoptosis was measured analyzing sub-G1 peaks. Apoptotic cell death was also evaluated by using annexin V–fluorescein isothiocyanate (FITC) apoptosis kit (BD Bioscience) and assayed according to the manufacturer’s instructions. Cells double-stained for both annexin V and PI were analyzed by flow cytometry. PI was used in conjunction with annexin V–FITC to distinguish cells in the earlier stages of apoptosis (annexin V-FITC positive, PI negative) from those in later stages of apoptosis or that were already dead (annexin V–FITC positive, PI positive). Percentage of cells positive for caspase-3 activation was evaluated by Active Caspase-3 Apoptosis Kit (BD biosciences, Milan, Italy) according to the manufacturer’s instructions.

[2] = tested on: H1299 human non-small cell lung carcinoma; experiment: Antiproliferative activity, MTT; assay type: cell-based; details: Homo sapiens, NCI-H1299, 48 h, 48 h treatment, read-out: Antiproliferative Activity (IC50 ± SD) H1299
Protocol: as §1, §2, §3

[3] = tested on: HCT116 human colorectal carcinoma; experiment: Antiproliferative activity, MTT; assay type: cell-based; details: HCT-116, 48 h treatment, read-out: Antiproliferative Activity (IC50 ± SD) HCT116
Protocol: as §1, §2, §3

[4] = tested on: HT1080 human fibrosarcoma; experiment: Antiproliferative activity, MTT; assay type: cell-based; details: HT-1080, 48 h treatment, read-out: Antiproliferative Activity (IC50 ± SD) HT1080
Protocol: as §1, §2, §3

[5] = tested on: HeLa epithelial cervix carcinoma; experiment: Antiproliferative activity, MTT; assay type: cell-based; details: Homo sapiens, 48 h treatment, read-out: Antiproliferative Activity (IC50 ± SD) HeLa
Protocol: as §1, §2, §3

M14 human melanoma = experiment: Antiproliferative activity, MTT; assay type: cell-based; details: 48 h treatment, read-out: Antiproliferative Activity (IC50 ± SD) M14
Protocol: as §1, §2, §3

F21T G-quadruplex DNA = experiment: FRET melting assay, G-quadruplex DNA; assay type: binding
Protocol: (§4) Experimental procedure for Fluorescence Resonance Energy Transfer (FRET) melting assay Oligonucleotides labeled at 5’ with FAM (6-carboxyfluorescein) as donor fluorophore and TAMRA (6 - carboxytetramethylrhodamine) at 3’ as the acceptor fluorophore were purchased from STAB VIDA (Portugal). Each oligonucleotide was initial ly diluted to 100 µM in water (Molecular Biology Reagent, Sigma). Stock solutions of 20 µM and subsequent dilutions were made with FRET buffer (60 mM KCl, potassium cacodylate, pH 7.4). Tagged oligonucleotides at 0.4 µM were annealed by heating at 90 -95 °C for 10 min, followed by slow cooling to room temperature. St ock solutions of compounds (1 mM) were prepared in 10% DMSO. Subsequent dilutions were performed using FRET buffer. Annealed DNA (50 µL) and test compound solutions (50 µL) were distributed across 96-well RT-PCR plates (PCR-96-FLT-C, Axygen, Inc). Fluorescence readings (performed in a 7300 RT -PCR equipment from Applied Biosystems) were taken at intervals of 0.5 °C in the range 31 –95 °C, with the temperature being maintained for 30 seconds prior to each reading. Experiments were performed in triplicate. Fina l analysis of the data was carried out with GraphPad Prism v.5.0 (GraphPad Software Inc., La Jolla, CA, USA).
(§5) The advanced curve-fitting function in GraphPad Prism (nonlinear regression fit) was used for calculation of ΔTm values. Only results with fitting r2 values > 0.75 (std error < 0.25) were considered.
(§6) Table S2. Synthetic oligonucleotides used in FRET experiments.

KRAS21R G-quadruplex DNA = experiment: FRET melting assay, G-quadruplex DNA; assay type: binding
Protocol: as §4, §5, §6

[6] = tested on: luciferase reporter under methylated CMV promoter in KG-1 leukemia cells; experiment: CMV-luc assay in KG-1 cells; assay type: cell-based; details: KG-1 CMV-luc, vs DMSO
Protocol: The assay was carried out as described by Rilova et al.. The KG-1 cell line was stably transfected with the luciferase firefly (Luc^+ from pGL3 by Promega, Madison, WI, USA) reporter gene under the control of a methylated CMV promoter (from pEGFP-N1 by Clontech) and selected for the maintenance of the methylation of CMV and luciferase expression silencing (KG-1 CMV-luc). The stably integrated KG-1 CMV-luc cells are cultivated in RPMI-1640 medium (Lonza, Strasbourg, France), supplemented with 10% FCS (Lonza, Strasbourg, France) and 0.5 mg/mL of geneticin (Sigma-Aldrich, Saint-Quentin Fallavier, France), under 5% CO2, at 37 °C and seeded at 20,000 cells per well in 96-well plates. After 5 or 24 h of incubation in the presence of compounds or the solvent DMSO, the induction of the promoter is measured by quantification of luciferase with the Brite-lite assay system (PerkinElmer, Villebon-sur-Yvette, France) according to the manufacturer’s protocol. The luminescence is measured on an EnVision Multilabel Plate Reader (PerkinElmer, Villebon-sur-Yvette, France), and the data are expressed as fold induction compared to DMSO control. The mean of 2–4 experiments and its standard error are reported.

[7] = tested on: methylated UCHL1 promoter (pUCHL1) in HCT116 cells; experiment: UCHL1 promoter demethylation assay (EGFP induction, FACS); assay type: cell-based, human; details: HCT116, 5 µM, five days
Protocol: The assay was performed as described in [29]. Briefly, human colon cancer HCT116 (ATCC, VA, USA) cells were grown in Dulbecco’s Modified Eagle Medium (DMEM; Euroclone, Milan, Italy) supplemented with 10% fetal bovine serum (FBS; Euroclone, Milan, Italy), 2 mM L-glutamine (Euroclone), and antibiotics (100 U/mL penicillin, 100 µg/mL streptomycin) (Euroclone). The pUMLIEP vector (composed by MetLuc-IRES-EGFP construct upon the control of the ubiquitin carboxyl-terminal hydrolase L1 (UCHL1)) was linearized and methylated by with ClaI and SssI-methylase enzymes (New England Biolabs, Milan, Italy). After, methylated pUMLIEP was transfected into HCT116 cells following the protocol described in [30]. […] On day 5, cells were observed under by a fluorescent microscope (Cytation 5 Cell Imaging Multi-Mode Reader (BioTeK Milan, Italy) and BD Accuri flow cytometers. Nuclei were counterstained with DAPI (10 µg/mL, Invitrogen, Tournai, Belgium).

| SMILES | melting point [°C] | EC50 [1] [µM] | IC50 (HL60 APL cells) [µM] | IC50 (U937 AML cells) [µM] | other results |
| --- | --- | --- | --- | --- | --- |
| Cc1cc(Nc2cccc(CNC(=O)c3cccc(Nc4ccnc5ccccc45)c3)c2)nc(N)n1 (as salt: hydrochloride) [Compound 1c] | 183 to 185 | – | – | – | – |
| Cc1cc(Nc2cccc(NC(=O)c3cccc(CNc4ccnc5ccccc45)c3)c2)nc(N)n1 [Compound 1a] | 153 to 155 | 21 ± 3.1 | 18.1 ± 2.4 | 1.4 ± 0.2 | – |
| Cc1cc(Nc2cccc(NC(=O)Cc3cccc(Nc4ccnc5ccccc45)c3)c2)nc(N)n1 [Compound 1b] | 163 to 165 | 19 ± 2 | 40 ± 5 | 37 ± 5.9 | – |
| Cc1cc(NCc2cccc(NC(=O)c3cccc(Nc4ccnc5ccccc45)c3)c2)nc(N)n1 [Compound 1d] | 260 to 262 | 51 ± 10 | 67 ± 7.4 | 67 ± 8.8 | – |
| Cc1cc(Nc2cccc(C(=O)Nc3cccc(Nc4ccnc5ccccc45)c3)c2)nc(N)n1 [Compound 1e] | 227 to 229 | 21 ± 4 | 9.9 ± 1.1 | 4.8 ± 0.6 | – |
| Cc1cc(Nc2cccc(NCc3cccc(Nc4ccnc5ccccc45)c3)c2)nc(N)n1 [Compound 1f] | 98 to 100 | 12 ± 3 | 1.9 ± 0.1 | 4.4 ± 0.7 | – |
| Cc1cc(Nc2ccc(NC(=O)c3cccc(Nc4cc(C)nc(N)n4)c3)cc2)nc(N)n1 [Compound 3a] | 218 to 220 | 41 ± 10 | 83 ± 10.2 | 52.4 ± 7.6 | – |
| Cc1cc(Nc2cccc(NC(=O)c3cccc(Nc4cc(C)nc(N)n4)c3)c2)nc(N)n1 [Compound 3b] | 105 to 107 | > 100 | 225 ± 28.5 | 123 ± 15 | – |
| Cc1cc(Nc2ccc(C(=O)Nc3cccc(Nc4cc(C)nc(N)n4)c3)cc2)nc(N)n1 [Compound 3c] | 292 to 294 | 13 ± 0.9 | 125 ± 16.2 | 66 ± 9.2 | – |
| O=C(Nc1cccc(NC(=O)c2cccc(Nc3ccnc4ccccc34)c2)c1)OCc1ccccc1 [Compound 4b] | – | 13 ± 1.4 | 1.9 ± 0.3 | 3.2 ± 0.6 | effect on sub-G1 peaks vs untreated cells (U937 cells): remarkable increase; IC50 [2]: 40 ± 4.8 µM; IC50 [3]: 20.5 ± 2.8 µM; IC50 [4]: 13.1 ± 1.5 µM; IC50 [5]: 65 ± 7.3 µM; IC50 (M14 human melanoma): 15.3 ± 2 µM; F21T ∆Tm (F21T G-quadruplex DNA; 5 µM): 3.8 ºC; F21T ∆Tm (F21T G-quadruplex DNA; 10 µM): 1.5 ºC; KRAS ∆Tm (KRAS21R G-quadruplex DNA; 5 µM): 2.8 ºC; KRAS ∆Tm (KRAS21R G-quadruplex DNA; 10 µM): 2.5 ºC |
| Nc1ncn([C@H]2C[C@H](O)[C@@H](CO)O2)c(=O)n1 [DAC, 5-aza-2′-deoxycytidine, reference compound] | – | – | – | – | Luciferase Expression (Fold ± SD) ([6]; 0.5 µM): 18.13 ± 5.52 fold; Luciferase Expression (Fold ± SD) ([6]; 1 µM): 19.80 ± 3.88 fold; Luciferase Expression (Fold ± SD) ([6]; 5 µM): 23.82 ± 5.44 fold; Luciferase Expression (Fold ± SD) ([6]; 10 µM): 20.96 ± 4.02 fold; pUCHL1 demethylation, EGFP-positive cells (FACS R1) [7]: 46.6% |
| C[n+]1ccc(-c2c3nc(c(-c4cc[n+](C)cc4)c4ccc([nH]4)c(-c4cc[n+](C)cc4)c4ccc([nH]4)c(-c4cc[n+](C)cc4)c4nc2C=C4)C=C3)cc1 [Py4P, reference compound] | – | – | – | – | F21T ∆Tm (F21T G-quadruplex DNA; positive control at 1 µM): 21.2 ºC; KRAS ∆Tm (KRAS21R G-quadruplex DNA; positive control at 1 µM): 18.8 ºC |
